Where a name gives a salt, the structure may show the parent alone.
Columns and labels:
[1] = molecular target: α1-adrenoceptors (α1-ARs), rat cerebral cortex; experiment: Radioligand binding assay with [3H]-prazosin, affinity for α1-ARs; details: three independent experiments in duplicates, read-out: α1-adrenoceptor affinity Ki
Description: In the first step, all synthesized compounds (1–15) were tested in vitro for their affinity for α1-ARs on rat cerebral cortex by the radioligand binding assay using [^3H]-prazosin as a specific radioligand.
The affinity for α1-ARs was determined by radioligand binding assay on rat cerebral cortex using [3H]-prazosin as a specific radioligand. The brains were homogenized in 20 volumes of an ice-cold 50 mM Tris-HCl buffer (pH 7.6) and were centrifuged (MPW Med. Instruments, Warsaw, Poland) at 20,000× g for 20 min (0–4 °C). The cell pellet was resuspended in the Tris-HCl buffer and centrifuged again. Radioligand-binding assay was performed in plates (MultiScreen/Millipore, Burlington, MA, USA). The final incubation mixture (final volume 300 μL) consisted of 240 μL of the membrane suspension, 30 μL of [3H]-Prazosin (0.2 nM) solution, and 30 μL of the buffer containing seven to eight concentrations (10^−11 to 10^−4 M) of the tested compounds. For measuring the unspecific binding, phentolamine, 10 μM (in the case of [3H]-Prazosin) was applied. The incubation was terminated by rapid filtration over glass fiber filters (Whatman GF/C, Sigma-Aldrich) using a vacuum manifold (Millipore). The filters were then washed twice with the assay buffer and placed in scintillation vials with a liquid-scintillation cocktail. Radioactivity was measured in a WALLAC 1409 DSA liquid-scintillation counter (BioSurplus, San Diego, CA, USA).
(§1) All statistics were performed using GraphPad Prism, Version 6.0 (GraphPad Software, San Diego, CA, USA). In the radioligand binding study, data were analyzed by a one-site curve-fitting equation, and inhibition constants (Ki) values were calculated via the Cheng-Prusoff equation [63]. In functional studies, data were analyzed using a sigmoidal dose-response (variable slope) equation. Arterial blood pressure data were analyzed using a two-way ANOVA with Sidak’s post-hoc test for multiple comparisons. A p < 0.05 was considered statistically significant.

[2] = molecular target: T1, human adrenergic receptor α1A (Homo sapiens, UniProt P35348); experiment: Intrinsic activity, aequorin luminescence functional assay at α1A-AR; format: cell-based; details: for α1A-AR Profile: agonist/antagonist profile; for IC50: cells expressing aequorin and human α1A, against phenylephrine, means of three independent experiments in duplicates; for Selectivity Ratio α1B/α1A: selectivity for α1A-AR (IC50(α1B-AR)/IC50(α1A-AR))
T1 sequence (P35348 1-466): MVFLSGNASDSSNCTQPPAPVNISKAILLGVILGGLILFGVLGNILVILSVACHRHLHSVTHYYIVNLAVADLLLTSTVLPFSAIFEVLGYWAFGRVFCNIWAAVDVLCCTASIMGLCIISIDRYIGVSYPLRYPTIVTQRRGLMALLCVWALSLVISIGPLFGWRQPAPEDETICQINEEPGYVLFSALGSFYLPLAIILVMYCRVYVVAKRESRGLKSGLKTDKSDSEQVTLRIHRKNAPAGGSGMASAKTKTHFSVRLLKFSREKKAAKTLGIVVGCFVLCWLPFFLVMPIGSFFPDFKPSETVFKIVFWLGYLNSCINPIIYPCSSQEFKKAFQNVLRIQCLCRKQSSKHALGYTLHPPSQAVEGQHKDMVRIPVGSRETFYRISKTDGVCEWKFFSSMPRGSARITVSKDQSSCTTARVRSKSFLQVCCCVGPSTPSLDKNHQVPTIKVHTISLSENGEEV
Description: (§2) The subtype selectivity for α1A and α1B was calculated as IC50(α1B-AR)/IC50(α1A-AR) and IC50(α1A-AR)/IC50(α1B-AR) ratio, respectively.
(§3) Intrinsic activity at the α1-AR subtypes studies were performed using the cells expressing mitochondrially-targeted aequorin and one of the human adrenergic receptor α1A or α1B (PerkinElmer, Boston, MA, USA), according to the manufacturer’s instructions. For measurement, frozen cells were thawed and re-suspended in 10 mL of assay buffer containing 5 μM “Coelenterazine h”. This cell suspension was put in a 10 mL Falcon tube, fixed onto a rotating heel, and incubated overnight at rt in the dark (8 rpm; 45° angle). Cells were diluted with Assay Buffer to 5000 cells/20 μL. […] The light emitted was recorded for 20 s. Cells with antagonists were incubated for 15 min at room temperature. […] Luminescence was measured using the multidetection microplate reader (POLARstar Omega, BMG LABTECH, Ortenberg, Germany).
as §1

[3] = molecular target: T2, human adrenergic receptor α1B (Homo sapiens, UniProt P35368); experiment: Intrinsic activity, aequorin luminescence functional assay at α1B-AR; format: cell-based; details: for α1B-AR Profile: agonist/antagonist profile; for IC50: cells expressing aequorin and human α1B, against phenylephrine, means of three independent experiments in duplicates; for Selectivity Ratio α1A/α1B: selectivity for α1B-AR (IC50(α1A-AR)/IC50(α1B-AR))
T2 sequence (P35368 1-520): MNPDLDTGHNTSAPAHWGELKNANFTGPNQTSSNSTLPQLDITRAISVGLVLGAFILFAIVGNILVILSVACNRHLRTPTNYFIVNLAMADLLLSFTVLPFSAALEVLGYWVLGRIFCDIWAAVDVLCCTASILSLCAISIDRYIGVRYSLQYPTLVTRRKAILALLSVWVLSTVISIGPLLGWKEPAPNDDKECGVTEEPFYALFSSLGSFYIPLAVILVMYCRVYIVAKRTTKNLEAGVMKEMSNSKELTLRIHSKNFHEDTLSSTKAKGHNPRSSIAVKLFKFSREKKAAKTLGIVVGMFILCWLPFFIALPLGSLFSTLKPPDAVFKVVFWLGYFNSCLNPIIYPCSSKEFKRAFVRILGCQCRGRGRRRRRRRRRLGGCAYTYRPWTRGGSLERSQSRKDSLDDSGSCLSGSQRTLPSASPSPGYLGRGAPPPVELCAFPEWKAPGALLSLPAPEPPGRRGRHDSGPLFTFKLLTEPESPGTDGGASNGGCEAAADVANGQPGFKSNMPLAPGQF
Description: as §2, §3, §1

[4] = test system: arterial blood pressure of normotensive Wistar rats; experiment: Influence on blood pressure in normotensive anesthetized rats after i.v. administration; format: in vivo, rat; details: 2.0 mg/kg i.v., mean, n = 6
Description: In the next step, the hypotensive activity of novel compounds 1–3, 5–9, and 11–14 was determined after i.v. administration to normotensive anesthetized rats. All results are shown in Supplementary Table S1.
The normotensive rats were anesthetized with thiopental (75 mg/kg) by intraperitoneal injection (i.p.). The left carotid artery was cannulated with a polyethylene tub filled with heparin in saline to facilitate pressure measurements using a PowerLab Apparatus (ADInstruments, Sydney, Australia). Blood pressure was measured immediately before administration of the tested compounds or vehicle—time 0 min (initial blood pressure) and 60 min thereafter. Initial blood pressure before administration of the tested chemicals in all experimental groups was similar. The tested compounds were dissolved in a specific vehicle: ethyl alcohol 5% − kolliphor 5% − water 90%. All tested chemicals were administrated intravenously (i.v.) at a constant volume of 1 mL/kg after 20 min of stabilization period. The compounds were tested at a starting dose of 2 mg/kg. If the hypotensive activity was found, the dose was reduced by half. The dosing was continued until the hypotensive effects disappeared. Urapidil was used as a reference compound.
as §1

[5] = 0 min (initial, before administration)

| Compound | Ki [1] [nM] | α1A-AR Profile [2] | IC50 [2] [nM] | Selectivity Ratio α1B/α1A [2] | α1B-AR Profile [3] | IC50 [3] [nM] | Selectivity Ratio α1A/α1B [3] | Diastolic blood pressure [4, 5] | Systolic blood pressure [4, 5] | Diastolic blood pressure ([4]; 5 min) | Systolic blood pressure ([4]; 5 min) | Diastolic blood pressure ([4]; 10 min) | Systolic blood pressure ([4]; 10 min) | Diastolic blood pressure ([4]; 20 min) | Systolic blood pressure ([4]; 20 min) | Diastolic blood pressure ([4]; 30 min) | Systolic blood pressure ([4]; 30 min) | Diastolic blood pressure ([4]; 40 min) | Systolic blood pressure ([4]; 40 min) | Diastolic blood pressure ([4]; 50 min) | further results |
| --- | --- | --- | --- | --- | --- | --- | --- | --- | --- | --- | --- | --- | --- | --- | --- | --- | --- | --- | --- | --- | --- |
| CC1(C)C(=O)N(Cc2ccc(Cl)cc2Cl)C(=O)N1CC(O)CN1CCN(c2ccc(F)cc2F)CC1 (stereo not drawn) [Compound 9] | 42 | Antagonist | 162 | 0.91 | Antagonist | 147 | 1.10 | 100.3 | 135.2 | 98.2 | 133.3 | 93.5 | 127.0 | 90.8 | 125.0 | 93.2 | 128.2 | 92.0 | 128.2 | 90.3 | Systolic blood pressure ([4]; 50 min): 127.2; Diastolic blood pressure ([4]; 60 min): 87.3; Systolic blood pressure ([4]; 60 min): 122.0 |
| CC1(C)C(=O)N(Cc2ccc(Cl)cc2Cl)C(=O)N1CC(O)CN1CCN(C(c2ccccc2)c2ccccc2)CC1 (stereo not drawn) [Compound 15] | 2440 | – | – | – | – | – | – | – | – | – | – | – | – | – | – | – | – | – | – | – | – |
| CCOc1ccccc1OCCN[C@H](C)Cc1ccc(OC)c(S(N)(=O)=O)c1 [Tamsulosin, tamsulosin hydrochloride, reference compound] | – | Antagonist | – | – | Antagonist | 0.48 | – | – | – | – | – | – | – | – | – | – | – | – | – | – | – |
| COc1cc2nc(N3CCN(C(=O)C4CCCO4)CC3)nc(N)c2cc1OC (stereo not drawn) [Terazosin, terazosin hydrochloride, reference compound] | – | Antagonist | – | – | Antagonist | – | – | – | – | – | – | – | – | – | – | – | – | – | – | – | – |
| CC1(C)C(=O)N(Cc2ccc(Cl)cc2Cl)C(=O)N1CC(O)CN1CCN(c2ccccc2F)CC1 (stereo not drawn) [Compound 7] | 100 | Antagonist | 1410 | 0.34 | Antagonist | 484 | 2.92 | 103.2 | 137.8 | 91.5 | 125.3 | 91.0 | 124.3 | 93.0 | 121.8 | 92.0 | 123.8 | 94.3 | 123.7 | 93.2 | Systolic blood pressure ([4]; 50 min): 122.7; Diastolic blood pressure ([4]; 60 min): 91.3; Systolic blood pressure ([4]; 60 min): 121.5 |
| CC1(C)C(=O)N(Cc2ccc(Cl)cc2Cl)C(=O)N1CCCCCCN1CCN(c2ccc(Cl)c(Cl)c2)CC1.Cl [Compound 4, 3-(2,4-dichlorobenzyl)-1-(6-(4-(3,4-dichlorophenyl)piperazin-1-yl)hexyl)-5,5-dimethylimidazolidine-2,4-dione hydrochloride] | 255 | – | – | – | – | – | – | – | – | – | – | – | – | – | – | – | – | – | – | – | melting point: 154 to 156 °C |
| CC1(C)C(=O)N(Cc2ccc(Cl)cc2Cl)C(=O)N1CC(O)CN1CCN(c2ccc(F)cc2)CC1 (stereo not drawn) [Compound 8] | 44 | Antagonist | 817 | 0.21 | Antagonist | 170 | 4.79 | 96.7 | 129.2 | 87.8 | 121.5 | 89.0 | 120.5 | 88.2 | 120.0 | 86.5 | 120.2 | 84.7 | 119.5 | 85.5 | Systolic blood pressure ([4]; 50 min): 120.0; Diastolic blood pressure ([4]; 60 min): 84.3; Systolic blood pressure ([4]; 60 min): 119.0 |
| CC1(C)C(=O)N(Cc2ccc(Cl)cc2Cl)C(=O)N1CC(O)CN1CCN(c2ccc(Cl)c(Cl)c2)CC1.Cl (stereo not drawn) [Compound 10, 3-(2,4-dichlorobenzyl)-1-(3-(4-(3,4-dichlorophenyl)piperazin-1-yl)-2-hydroxypropyl)-5,5-dimethylimidazolidine-2,4-dione hydrochloride] | 778 | – | – | – | – | – | – | – | – | – | – | – | – | – | – | – | – | – | – | – | melting point: 223 to 225 °C |
| CNC[C@H](O)c1cccc(O)c1 [Phenylephrine, phenylephrine, reference compound] | – | Agonist | – | – | Agonist | – | – | – | – | – | – | – | – | – | – | – | – | – | – | – | – |

Source: PMC10706087, “The Subtype Selectivity in Search of Potent Hypotensive Agents among 5,5-Dimethylhydantoin Derived α1-Adrenoceptors Antagonists” (International Journal of Molecular Sciences, 2023)
